Experimental data as given in the NIST ThermoML archive (doi:10.1021/je1009976).
Numbers after ± are expanded uncertainties.

Tests used:
[1] = 101 kPa, Liquid; for viscosity: Capillary tube (Ostwald / Ubbelohde) method; for mass density: Pycnometric method
[2] = xn = mol fraction of the nth substance listed; settings: 101 kPa, Liquid, x2 = 0; for viscosity: Capillary tube (Ostwald / Ubbelohde) method; for mass density: Pycnometric method

Row | Compound | viscosity ([1]; 303.15 K) [mPa·s] | mass density ([1]; 303.15 K) [kg/m3] | viscosity ([1]; 308.15 K) [mPa·s] | mass density ([1]; 308.15 K) [kg/m3] | viscosity ([1]; 313.15 K) [mPa·s] | mass density ([1]; 313.15 K) [kg/m3] | viscosity ([1]; 318.15 K) [mPa·s] | mass density ([1]; 318.15 K) [kg/m3] | viscosity ([1]; 323.15 K) [mPa·s] | mass density ([1]; 323.15 K) [kg/m3] | viscosity ([2]; 303.15 K) [mPa·s] | viscosity ([2]; 308.15 K) [mPa·s] | mass density ([2]; 308.15 K) [kg/m3] | viscosity ([2]; 313.15 K) [mPa·s] | viscosity ([2]; 318.15 K) [mPa·s] | mass density ([2]; 318.15 K) [kg/m3] | viscosity ([2]; 323.15 K) [mPa·s]
1 | OCCOCCO [diethylene glycol] | 22.16 ± 0.46 | 1109.48 ± 0.75 | 17.93 ± 0.44 | 1105.72 ± 0.75 | 14.71 ± 0.43 | 1102.11 ± 0.76 | 12.19 ± 0.42 | 1098.35 ± 0.76 | 10.19 ± 0.41 | 1094.94 ± 0.75 | – | – | – | – | – | – | –
2 | O [water] + OCCOCCO | – | – | – | – | – | – | – | – | – | – | 0.801 ± 0.4 | 0.722 | 994.12 ± 0.39 | 0.656 | 0.598 | 990.3 ± 0.44 | 0.549
